TGI data for 13 compounds are collected here from PubChem BioAssay (NCI).

What all share (test): growth of human tumour cells (NCI), 48 h
The subject of test [1] is NCI-H23 lung.
Test [2] deals with SK-OV-3 ovarian.
Test [3] deals with UACC-257 melanoma.
Test [4] deals with HT29 colon.
Test [5] deals with DU-145 prostate.
Test [6] deals with SK-MEL-28 melanoma.
Test [7] has as its system T-47D breast.
In test [8] the test system is HCT-116 colon.
Test [9] relates to MCF7 breast.
In test [10] the test system is SNB-75 CNS.

Molecules are shown by their SMILES.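 48-hour exposure; five concentrations; linearly interpolated endpoints. The concentration for full growth arrest is given as TGI.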 Some results are limits rather than exact numbers.

As to `CCN(CC)Cc1nc2sc3c(c2c(=O)n1-c1ccccc1)CCCC3`, the TGI is 81.2 µM in [1]; 83.3 µM in [2]; 47.5 µM in test [3]; 29.3 µM in test [4]; 47.8 µM in test [5]; > 100 µM in test [6]. The TGI was determined as 44.7 µM in test [7], 39.4 µM in test [8], 36 µM in [9] and 47.4 µM in [10].
With `C=CCC(C)C12CCNC(Cc3ccc(O)cc31)C2C` (stereo not given), the TGI in test [1], in [2], in test [3], in [4], in test [5] and in test [6] was > 100 µM in each case. Moreover, the TGI in test [7], in test [8], in test [9] and in test [10] was > 100 µM in each case.
Consider `Cc1cnoc1NC1=CC(=O)C(=O)c2ccccc21`, for which the TGI is 32.7 µM in test [1]; > 100 µM in test [2]; 49.3 µM in [3]; 90 µM in [4]; 61.2 µM in test [5]; > 100 µM in test [6]. In addition, the TGI in test [7] is > 100 µM; in [8] it was 70.8 µM; in [9] it was 16.4 µM; in [10], > 100 µM.
As for `Cc1c(C)c(C)c(-n2[nH]c(=O)n(C)c2=O)c(C)c1C`, the TGI in [1], in test [2], in test [3], in test [4], in test [5] and in [6] was > 100 µM throughout. In addition, the TGI in test [7], in test [8], in test [9] and in [10] was > 100 µM each time.
With `COc1cc2c(cc1C[N+](C)(C)CSc1ccccc1)-c1ccccc1CC2`, the TGI in [1] was 14.4 µM; in test [2], 26.1 µM; in test [3] it was 12.3 µM; in test [4] it was 13.1 µM; in test [5] it was 21.2 µM; in test [6] it was > 35.1 µM. In addition, the TGI in test [7] is 16.2 µM; in [8] it was 13.1 µM; in test [9], 16.4 µM; in [10], 6.17 µM.
Regarding `O=[N+]([O-])c1cccc(-c2csc(N=Nc3c(O)[nH]c4ccccc34)n2)c1`, the TGI in [1] was > 100 µM; in test [2], > 100 µM; in test [3], 41.3 µM; in [4], 44.5 µM; in test [5] it was 65.9 µM; in test [6], 36.1 µM. Moreover, the TGI is 82.4 µM in test [7], 33.2 µM in test [8], > 100 µM in test [9] and 56.1 µM in test [10].
In the case of `CC(C)CCCC(C)[C@H]1CCC2[C@@H]3CCC4Cc5nc6c(nc5C[C@]4(C)C3CC[C@@]21C)CC1CC[C@@H]2C(C[C@@H](O)[C@@]3(C)C2C[C@@H]2OC4(CCC(C)CO4)C(C)[C@@H]23)[C@@]1(C)C6` (stereo not given in full), the TGI in test [1], in test [2], in test [3], in test [4], in [5] and in test [6] was > 100 µM each time. Besides, the TGI in test [7], in test [8], in [9] and in test [10] was > 100 µM in each case.
Consider `CN(C)C(=S)N/N=C\C=N/NC(=S)N(C)C`, for which the TGI in test [1] was > 58.8 µM; in test [2], > 100 µM; in [3], > 100 µM; in test [4], > 100 µM; in test [5] it was > 40.7 µM; in test [6], > 100 µM. The TGI in test [7], in [8], in test [9] and in test [10] was > 100 µM throughout.
For `CCCC/C=C1\CCC(CN2CCCCC2)C1=O` (stereo not given), the TGI is 45.1 µM in test [1]; > 56.2 µM in test [2]; 42 µM in [3]; 23.7 µM in test [4]; > 100 µM in [5]; 36.7 µM in test [6]. Besides, the TGI in [7] was > 100 µM; in [8], 36.7 µM; in [9], > 100 µM; in test [10], > 100 µM.
As to `COc1ccc2c(c1)OC(c1cccnc1)C(c1ccccc1)C2=O` (stereo not given), the TGI in test [1], in test [2], in test [3], in [4], in [5] and in test [6] was > 100 µM throughout. Further, the TGI in test [7], in test [8], in [9] and in [10] was > 100 µM throughout.
Consider `Cc1ccc(F)cc1NC(=O)O/N=C(\Cl)C(C)C`, for which the TGI was > 56.9 µM in [1]; 36.9 µM in test [2]; 46.7 µM in test [3]; 37 µM in test [4]; 33.5 µM in test [5]; 38 µM in test [6]. Also, the TGI came out at 33.6 µM in test [7], 35.3 µM in [8], 20.8 µM in test [9] and 35.7 µM in test [10].
On to `CC(=O)c1ccc(N=Nc2ccc3nonc3c2N)cc1`, for which the TGI in test [1], in [2], in test [3], in test [4], in test [5] and in test [6] was > 100 µM each time. Moreover, the TGI in test [7], in test [8], in test [9] and in test [10] was > 100 µM each time.
Regarding `CC(C)/C(Cl)=N/OC(=O)Nc1ccc(F)c(Cl)c1`, the TGI worked out at 27.8 µM in test [1]; 30 µM in test [2]; 26.5 µM in test [3]; 13.3 µM in test [4]; 30.5 µM in [5]; 5.46 µM in test [6]. The TGI in [7] amounted to 12.7 µM; in test [8] it was 6.77 µM; in test [9], 22.4 µM; in test [10] it was 32 µM.
